The source of these data is patent US10758534B2 (Vertex Pharmaceuticals Incorporated, priority 2014, dated 2020).

The target in the first assay is T1, F508del (Homo sapiens, UniProt P13569, DEL508-508).
T1 construct: expressed in transfected cells
T1 sequence (P13569 with tags, fused parts or gaps DEL508-508): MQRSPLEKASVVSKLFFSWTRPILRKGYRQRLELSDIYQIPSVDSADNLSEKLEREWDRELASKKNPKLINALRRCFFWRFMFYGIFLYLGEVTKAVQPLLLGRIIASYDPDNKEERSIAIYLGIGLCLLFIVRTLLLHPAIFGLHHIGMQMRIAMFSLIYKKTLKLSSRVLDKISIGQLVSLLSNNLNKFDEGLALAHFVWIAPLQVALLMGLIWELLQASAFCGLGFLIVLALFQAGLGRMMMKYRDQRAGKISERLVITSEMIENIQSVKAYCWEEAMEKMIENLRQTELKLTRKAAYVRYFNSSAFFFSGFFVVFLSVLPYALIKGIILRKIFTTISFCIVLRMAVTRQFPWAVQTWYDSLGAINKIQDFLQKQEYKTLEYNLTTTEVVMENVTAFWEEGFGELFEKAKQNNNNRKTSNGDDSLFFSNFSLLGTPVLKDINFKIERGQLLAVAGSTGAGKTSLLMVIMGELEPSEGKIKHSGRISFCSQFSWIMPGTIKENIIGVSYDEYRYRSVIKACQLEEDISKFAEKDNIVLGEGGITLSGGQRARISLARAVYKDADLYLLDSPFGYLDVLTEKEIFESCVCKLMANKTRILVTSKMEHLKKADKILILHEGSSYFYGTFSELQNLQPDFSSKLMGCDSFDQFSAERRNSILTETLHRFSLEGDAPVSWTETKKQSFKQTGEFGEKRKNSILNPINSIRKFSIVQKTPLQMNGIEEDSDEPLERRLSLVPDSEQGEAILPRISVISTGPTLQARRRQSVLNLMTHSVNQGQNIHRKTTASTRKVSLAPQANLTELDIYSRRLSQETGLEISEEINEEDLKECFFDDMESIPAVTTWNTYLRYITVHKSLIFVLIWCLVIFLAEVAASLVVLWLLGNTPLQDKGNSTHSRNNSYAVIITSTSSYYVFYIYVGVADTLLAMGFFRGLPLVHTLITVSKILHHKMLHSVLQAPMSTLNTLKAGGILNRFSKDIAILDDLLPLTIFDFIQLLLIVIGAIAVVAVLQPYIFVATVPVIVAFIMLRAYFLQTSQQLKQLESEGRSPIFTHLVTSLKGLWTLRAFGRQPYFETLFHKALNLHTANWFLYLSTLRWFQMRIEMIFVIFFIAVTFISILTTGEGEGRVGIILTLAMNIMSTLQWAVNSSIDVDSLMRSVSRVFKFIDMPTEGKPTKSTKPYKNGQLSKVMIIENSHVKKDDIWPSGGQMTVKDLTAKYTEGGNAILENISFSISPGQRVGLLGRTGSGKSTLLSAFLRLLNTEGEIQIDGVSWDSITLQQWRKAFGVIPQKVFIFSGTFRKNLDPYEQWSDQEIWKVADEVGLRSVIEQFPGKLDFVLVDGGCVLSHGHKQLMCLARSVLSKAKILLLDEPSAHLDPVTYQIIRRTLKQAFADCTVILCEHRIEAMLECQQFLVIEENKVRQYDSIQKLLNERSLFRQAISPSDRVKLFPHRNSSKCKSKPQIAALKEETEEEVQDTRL
Description: Protocol 2: FRET membrane potential optical assay (VIPR), identification of correction compounds. Format: cell-based. Conditions: F508del CFTR modulator activity; compounds of Table 1; read-out: EC30. The method in brief: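 Correction of the F508del trafficking defect is scored as forskolin (10 μM)/genistein (20 μM)-stimulated Cl^− efflux in NIH3T3 mouse fibroblasts after a 16 hr, 37° C. compound exposure. Depolarization was followed optically using voltage-sensing FRET dyes.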
In the case of `Cc1cc(-c2ccc(C(=O)NS(=O)(=O)c3cccc(N)n3)c(N3C[C@@H](C)CC3(C)C)n2)cnc1OC(C)C` [Compound 2170, N-[(6-amino-2-pyridyl)sulfonyl]-6-(6-isopropoxy-5-methyl-3-pyridyl)-2-[(4S)-2,2,4-trimethylpyrrolidin-1-yl]pyridine-3-carboxamide], the 30% effect concentration (EC30) (in general, the concentration at which the effect reaches the 30% level) is less than 3000 nM. On the same count and under the same terms, with `CC(=O)Nc1cccc(Oc2cccc(S(=O)(=O)NC(=O)c3cccnc3N3CC(C)CC3(C)C)n2)c1` (stereo not drawn) [Compound 2433, N—[[6-(3-acetamidophenoxy)-2-pyridyl]sulfonyl]-2-(2,2,4-trimethylpyrrolidin-1-yl)pyridine-3-carboxamide] the figure was 3000 to 10000 nM; with `CC1CN(c2ncccc2C(=O)NS(=O)(=O)c2cccc(OC3CCC3)n2)C(C)(C)C1` (stereo not drawn) [Compound 2371, N—[[6-(cyclobutoxy)-2-pyridyl]sulfonyl]-2-(2,2,4-trimethylpyrrolidin-1-yl)pyridine-3-carboxamide], less than 3000 nM; with `Cc1ccc(-c2ccc(C(=O)NS(=O)(=O)c3cccnc3N)c(N3C[C@@H](C)CC3(C)C)n2)cn1` [Compound 2363, N-[(2-amino-3-pyridyl)sulfonyl]-6-(6-methyl-3-pyridyl)-2-[(4S)-2,2,4-trimethylpyrrolidin-1-yl]pyridine-3-carboxamide], 3000 to 10000 nM. Same read-out and setting: the value for `CC1CN(c2ncccc2C(=O)NS(=O)(=O)c2cccc(OC3CCC[C@@H]3C)n2)C(C)(C)C1` (stereo in doubt) [Compound 2109, N—[[6-[(1S,2S)-2-methylcyclopentoxy]-2-pyridyl]sulfonyl]-2-(2,2,4-trimethylpyrrolidin-1-yl)pyridine-3-carboxamide] was less than 3000 nM; that for `COc1cc(-c2ccc(C(=O)NS(=O)(=O)c3cccnc3N)c(N3C[C@@H](C)CC3(C)C)n2)ccc1F` [Compound 2124, N-[(2-amino-3-pyridyl)sulfonyl]-6-(4-fluoro-3-methoxy-phenyl)-2-[(4S)-2,2,4-trimethylpyrrolidin-1-yl]pyridine-3-carboxamide] was less than 3000 nM; that for `COc1ccc(CNc2cccc(S(=O)(=O)NC(=O)c3cccnc3N3CC(C)CC3(C)C)n2)cc1OC` (stereo not drawn) [Compound 2662, N—[[6-[(3,4-dimethoxyphenyl)methylamino]-2-pyridyl]sulfonyl]-2-(2,2,4-trimethylpyrrolidin-1-yl)pyridine-3-carboxamide] was 3000 to 10000 nM. For the compound `CC1CN(c2ncccc2C(=O)NS(=O)(=O)c2cccc(Nc3ccc4[nH]ncc4c3)n2)C(C)(C)C1` (stereo not drawn) [Compound 2389, N—[[6-(1H-indazol-5-ylamino)-2-pyridyl]sulfonyl]-2-(2,2,4-trimethylpyrrolidin-1-yl)pyridine-3-carboxamide], the EC30 fell in the range of 3000 to 10000 nM. Consider `C[C@@H]1CN(c2nc(C(C)(C)C)c(C(O)C(O)C3CCCC3)cc2C(=O)NS(=O)(=O)c2cccc(N)n2)C(C)(C)C1` (single isomer, unassigned) [Compound 2661], for which the 30% effect concentration (EC30) is less than 3000 nM. Consider `CC(C)Oc1ccccc1-c1ccc(C(=O)NS(=O)(=O)c2cccnc2N)c(N2C[C@@H](C)CC2(C)C)n1` [Compound 2623, N-[(2-amino-3-pyridyl)sulfonyl]-6-(2-isopropoxyphenyl)-2-[(4S)-2,2,4-trimethylpyrrolidin-1-yl]pyridine-3-carboxamide], for which the 30% effect concentration (EC30) was 3000 to 10000 nM. The same measure, in the same setting: with `C[C@@H]1CN(c2nc(-c3ccc4cc[nH]c4c3)ccc2C(=O)NS(=O)(=O)c2cccnc2N)C(C)(C)C1` [Compound 2054, N-[(2-amino-3-pyridyl)sulfonyl]-6-(1H-indol-6-yl)-2-[(4S)-2,2,4-trimethylpyrrolidin-1-yl]pyridine-3-carboxamide] the figure was less than 3000 nM.

Staying with this assay, now noted: Table 3; compounds of Table 1 as modulators of CFTR activity; protocol not stated.
Consider `CC(C)COc1cc(F)cc(-c2ccc(C(=O)NS(=O)(=O)c3cccc(N)n3)c(N3C[C@@H](C)CC3(C)C)n2)c1` [Compound 368, N-[(6-amino-2-pyridyl)sulfonyl]-6-(3-fluoro-5-isobutoxy-phenyl)-2-[(4S)-2,2,4-trimethylpyrrolidin-1-yl]pyridine-3-carboxamide], for which the EC30 result was “+++ (“+++” means <3 uM)”. `COc1cccnc1S(=O)(=O)NC(=O)c1ccc(C(C)(C)C)nc1Oc1c(C)cc(C)cc1C` [Compound 92, 6-tert-butyl-N-[(3-methoxy-2-pyridyl)sulfonyl]-2-(2,4,6-trimethylphenoxy)pyridine-3-carboxamide]: the EC30 result was “+++ (“+++” means <3 uM)”. Consider `Cc1cc(C)c(Oc2nc(C(C)(C)C)ccc2C(=O)NS(=O)(=O)c2cn(C)nc2N)c(C)c1` [Compound 41, N-(3-amino-1-methyl-pyrazol-4-yl)sulfonyl-6-tert-butyl-2-(2,4,6-trimethylphenoxy)pyridine-3-carboxamide], for which the concentration for an effect of 30% (EC30) result is recorded as “+++ (“+++” means <3 uM)”. Still for that read-out and setting: with `CC(C)Oc1ccc(-c2ccc(C(=O)NS(=O)(=O)c3cccc(N)n3)c(N3C(C)CC4CCCCC43)n2)cn1` (stereo not drawn) [Compound 675, N-[(6-amino-2-pyridyl)sulfonyl]-6-(6-isopropoxy-3-pyridyl)-2-(2-methyl-2,3,3a,4,5,6,7,7a-octahydroindol-1-yl)pyridine-3-carboxamide] the entry was “+++ (“+++” means <3 uM)”. Consider `Cc1cc(C)c(Cn2nc(-c3c(C)cccc3C)cc2C(=O)NS(=O)(=O)c2cccc(N)c2)c(C)c1` [Compound 209, N-(3-aminophenyl) sulfonyl-5-(2,6-dimethylphenyl)-2-[(2,4,6-trimethylphenyl)methyl]pyrazole-3-carboxamide], for which the concentration for an effect of 30% (EC30) result is given as “+++ (“+++” means <3 uM)”. Consider `Cc1cccc(C)c1Cn1nc(-c2ccc(F)cc2)cc1C(=O)NS(=O)(=O)c1ccccc1` [Compound 333, N-(benzenesulfonyl)-2-[(2,6-dimethylphenyl)methyl]-5-(4-fluorophenyl)pyrazole-3-carboxamide], for which the EC30 entry was “+++ (“+++” means <3 uM)”.

Turning to `Cc1cc(C)c(CN2c3ccccc3CCCC2C(=O)NS(=O)(=O)c2ccccc2)c(C)c1` (stereo not drawn) [Compound 604, N-(benzenesulfonyl)-1-[(2,4,6-trimethylphenyl)methyl]-2,3,4,5-tetrahydro-1-benzazepine-2-carboxamide], the EC30 entry is reported as “+++ (“+++” means <3 uM)”. `Cc1cc(C)c(Oc2nc(-c3cc(F)cc(OCC(C)C)c3)ccc2C(=O)NS(=O)(=O)c2ccc[nH]c2=O)c(C)c1` [Compound 169, 6-(3-fluoro-5-isobutoxy-phenyl)-N-[(2-oxo-1H-pyridin-3-yl)sulfonyl]-2-(2,4,6-trimethylphenoxy)pyridine-3-carboxamide]: the EC30 result is “+++ (“+++” means <3 uM)”. Same read-out and setting: with `Cc1cc(C)c(Oc2nc(C(C)(C)C)ccc2C(=O)NS(=O)(=O)c2ccn[nH]2)c(C)c1` [Compound 214, 6-tert-butyl-N-(1H-pyrazol-5-ylsulfonyl)-2-(2,4,6-trimethylphenoxy)pyridine-3-carboxamide] the entry was “+++ (“+++” means <3 uM)”; with `Cc1cccc(C)c1Cn1nc(C2CC3CCC2C3)cc1C(=O)NS(=O)(=O)c1cccc(N)c1` (stereo not drawn) [Compound 370, N-(3-aminophenyl)sulfonyl-2-[(2,6-dimethylphenyl)methyl]-5-norbornan-2-yl-pyrazole-3-carboxamide], “+++ (“+++” means <3 uM)”. The same measure, in the same setting: with `COc1ccccc1-c1cc(C(=O)NS(=O)(=O)c2ccccc2)n(Cc2c(C)cccc2C)n1` [Compound 347, N-(benzenesulfonyl)-2-[(2,6-dimethylphenyl)methyl]-5-(2-methoxyphenyl)pyrazole-3-carboxamide] the entry was “+++ (“+++” means <3 uM)”. The same measure, in the same setting: with `Cc1cc(C)c(Oc2nc(C(F)(F)F)ccc2C(=O)NS(=O)(=O)c2cccc(N)c2)c(C)c1` [Compound 96, N-(3-aminophenyl)sulfonyl-6-(trifluoromethyl)-2-(2,4,6-trimethylphenoxy)pyridine-3-carboxamide] the entry was “+++ (“+++” means <3 uM)”.

Regarding `CC(C)(C)c1ccc(C(=O)NS(=O)(=O)c2cccc(N)n2)c(C2=CCCCC2)n1` [Compound 478, N-[(6-amino-2-pyridyl)sulfonyl]-6-tert-butyl-2-(cyclohexen-1-yl)pyridine-3-carboxamide], the concentration for an effect of 30% (EC30) result was “++ (“++” means between 3 uM and 10 uM)”. On the same count and under the same terms, with `Cc1cc(C)c(Oc2nc(-c3cccc4c3ccn4C)ccc2C(=O)NS(=O)(=O)c2cccc(N)n2)c(C)c1` [Compound 386, N-[(6-amino-2-pyridyl)sulfonyl]-6-(1-methylindol-4-yl)-2-(2,4,6-trimethylphenoxy)pyridine-3-carboxamide] the entry was “+++ (“+++” means <3 uM)”; with `Cc1ccccc1C(C)n1nc(C(C)(C)C)cc1C(=O)NS(=O)(=O)c1cccc(N)c1` (stereo not drawn) [Compound 342, N-(3-aminophenyl)sulfonyl-5-tert-butyl-2-[1-(o-tolyl)ethyl]pyrazole-3-carboxamide], “+++ (“+++” means <3 uM)”; with `Cc1cc(C)c(CN2Cc3ccccc3C2C(=O)NS(=O)(=O)c2ccncc2)c(C)c1` (stereo not drawn) [Compound 94, N-(4-pyridylsulfonyl)-2-[(2,4,6-trimethylphenyl)methyl]isoindoline-1-carboxamide], “+++ (“+++” means <3 uM)”. Still for that read-out and setting: with `CC(C)Oc1ccc(-c2ccc(C(=O)NS(=O)(=O)c3cccc(N)n3)c(N3CCCC(c4ccccc4)C3)n2)cn1` (stereo not drawn) [Compound 233, N-[(6-amino-2-pyridyl)sulfonyl]-6-(6-isopropoxy-3-pyridyl)-2-[-3-phenyl-1-piperidyl]pyridine-3-carboxamide] the entry was “+++ (“+++” means <3 uM)”; with `Cc1cc(C)c(Oc2nc(-c3ccc(F)c(F)c3)ccc2C(=O)NS(=O)(=O)c2ccc[nH]c2=O)c(C)c1` [Compound 546, 6-(3,4-difluorophenyl)-N-[(2-oxo-1H-pyridin-3-yl)sulfonyl]-2-(2,4,6-trimethylphenoxy)pyridine-3-carboxamide], “++ (“++” means between 3 uM and 10 uM)”; with `CCOc1cc(F)cc(-c2ccc(C(=O)NS(=O)(=O)c3cccc(N)n3)c(N3[C@H](C)CC[C@@H]3C)n2)c1` [Compound 551, N-[(6-amino-2-pyridyl)sulfonyl]-2-[(2R,5S)-2,5-dimethylpyrrolidin-1-yl]-6-(3-ethoxy-5-fluoro-phenyl)pyridine-3-carboxamide], “+++ (“+++” means <3 uM)”.
